Measured values as given in US10034886B2, “GLP-1 receptor modulators” (Celgene International II SÀRL, priority 2014, dated 2018).

What follows are compounds tested against T1, GLP-1R (Homo sapiens, UniProt P43220) (assay: EC20 GLP-1(9-36) PAM cAMP assay: dose response of compound in the presence of fixed concentration of GLP-1(9-36)). Settings: dose response of compound in presence of fixed concentration of GLP-1(9-36), GLP-1R CRE-bla CHO-K1 cells, read-out: EC20 GLP-1(9-36) PAM EC50.
T1 construct: host or cells: GLP-1R CRE-bla CHO-K1 cells
Type: cell-based
Summary of the method: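 Positive allosteric modulation read as cAMP accumulation: compound titrations (12 points) combined with an EC20 level of GLP-1(9-36) on CHO-K1 GLP-1R CRE-bla cells, IBMX present, 30 min, 37 °C, pH 7.4 buffer. Luminescence converted to cAMP via standards; non-linear fit gave EC50 and Emax.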

T1 sequence (P43220 24-463): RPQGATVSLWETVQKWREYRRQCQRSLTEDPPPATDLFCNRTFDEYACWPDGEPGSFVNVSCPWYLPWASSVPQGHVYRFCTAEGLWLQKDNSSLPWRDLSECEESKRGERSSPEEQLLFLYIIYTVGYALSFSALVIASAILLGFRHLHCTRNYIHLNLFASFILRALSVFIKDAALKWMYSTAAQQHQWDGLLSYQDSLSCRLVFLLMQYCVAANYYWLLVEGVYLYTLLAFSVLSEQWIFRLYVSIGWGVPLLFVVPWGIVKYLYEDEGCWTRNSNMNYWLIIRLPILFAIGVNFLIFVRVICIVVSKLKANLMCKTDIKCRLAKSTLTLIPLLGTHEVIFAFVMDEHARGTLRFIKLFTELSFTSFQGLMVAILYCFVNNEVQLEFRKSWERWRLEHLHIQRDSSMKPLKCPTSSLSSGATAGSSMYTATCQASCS
T1 sequence (P01275 100-127 partner limits assumed): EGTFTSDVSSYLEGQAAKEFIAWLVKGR

Row | EC50 [nM] | Structure (SMILES)
1 | 5000 to 10000 | CCCCCCCOc1ccc(-c2cnc(-c3ccc(C[C@H](NC(=O)c4ccc(C(C)(C)C)s4)C(=O)NC(C(=O)O)[C@H](C)c4ccccc4)cc3)nc2)cc1 (some centres unmarked) [Compound 896]
2 | 5000 to 10000 | CCCCCCCOc1ccc(-c2cnc(-c3ccc(C[C@H](NC(=O)c4ccc(C(C)(C)C)s4)C(=O)NC(C(=O)O)[C@@H](C)c4ccccc4)cc3)nc2)cc1 (some centres unmarked) [Compound 897]
3 | 2500 to 5000 | CCCCCCCOc1ccc(-c2cnc(-c3ccc(C[C@H](NC(=O)c4ccc(C(C)(C)C)s4)C(=O)N[C@@H](C(=O)O)C(C)c4ccccc4)cc3)nc2)cc1 (some centres unmarked) [Compound 898]
4 | 2500 to 5000 | CCCCCCCOc1ccc(-c2cnc(-c3ccc(C[C@H](NC(=O)c4ccc(C(C)(C)C)s4)C(=O)N[C@H](C(=O)O)C(C)c4ccccc4)cc3)nc2)cc1 (some centres unmarked) [Compound 899]
5 | 800 to 2500 | CCCCCCCOc1ccc(-c2cnc(-c3ccc(C[C@H](NC(=O)c4ccc(C(C)(C)C)s4)C(=O)NC(C(=O)O)C(O)c4ccc(C)cc4)cc3)nc2)cc1 (some centres unmarked) [Compound 900]
6 | 800 to 2500 | CCCCCCCOc1ccc(-c2cnc(-c3ccc(C[C@H](NC(=O)c4ccc(C(C)(C)C)s4)C(=O)NC(C(=O)O)C(O)c4ccc(Cl)cc4)cc3)nc2)cc1 (some centres unmarked) [Compound 901]
7 | 2500 to 5000 | CCCCCCCOc1ccc(-c2cnc(-c3ccc(C[C@H](NC(=O)c4ccc(C(C)(C)C)s4)C(=O)NC(C(=O)O)C(O)c4cccc(Cl)c4)cc3)nc2)cc1 (some centres unmarked) [Compound 902]
8 | 5000 to 10000 | CCCCCCCOc1ccc(-c2cnc(-c3ccc(C[C@H](NC(=O)c4ccc(C(C)(C)C)s4)C(=O)NC(C(=O)O)C(O)c4cscn4)cc3)nc2)cc1 (some centres unmarked) [Compound 903]
9 | 2500 to 5000 | CCCCCCCOc1ccc(-c2cnc(-c3ccc(C[C@H](NC(=O)c4ccc(C(C)(C)C)s4)C(=O)NC(C(=O)O)C(O)c4cncnc4)cc3)nc2)cc1 (some centres unmarked) [Compound 904]
10 | 5000 to 10000 | CCCCCCCOc1ccc(-c2cnc(-c3ccc(C[C@H](NC(=O)c4ccc(C(C)(C)C)s4)C(=O)NC(C(=O)O)C(O)c4ccc(Cl)c(Cl)c4)cc3)nc2)cc1 (some centres unmarked) [Compound 905]
11 | 2500 to 5000 | CCCCCCCOc1ccc(-c2cnc(-c3ccc(C[C@H](NC(=O)c4ccc(C(C)(C)C)s4)C(=O)NC(C(=O)O)C(O)c4cn(C)cn4)cc3)nc2)cc1 (some centres unmarked) [Compound 906]
12 | 800 to 2500 | CCCCCCCOc1ccc(-c2cnc(-c3ccc(C[C@H](NC(=O)c4ccc(C(C)(C)C)s4)C(=O)NC(C(=O)O)C(O)c4cccnc4)cc3)nc2)cc1 (some centres unmarked) [Compound 907]
13 | 800 to 2500 | CCCCCCCOc1ccc(-c2cnc(-c3ccc(C[C@H](NC(=O)c4ccc(C(C)(C)C)s4)C(=O)NC(C(=O)O)C(O)C4CC4)cc3)nc2)cc1 (some centres unmarked) [Compound 908]
14 | 2500 to 5000 | CCCCCCCOc1ccc(-c2cnc(-c3ccc(C[C@H](NC(=O)c4ccc(C(C)(C)C)s4)C(=O)N[C@H](C(=O)O)[C@@H](C)c4ccccc4)cc3)nc2)cc1 [Compound 909]
15 | 800 to 2500 | CCCCCCCOc1ccc(-c2cnc(-c3ccc(C[C@H](NC(=O)c4ccc(C(C)(C)C)s4)C(=O)N[C@@H](C(=O)O)[C@H](C)c4ccccc4)cc3)nc2)cc1 [Compound 910]
16 | 800 to 2500 | CCCCCCCOc1ccc(-c2cnc(-c3ccc(C[C@H](NC(=O)c4ccc(C(C)(C)C)s4)C(=O)NC(C(=O)O)C(O)c4ccc(C#N)cc4)cc3)nc2)cc1 (some centres unmarked) [Compound 911]
17 | < 800 | CCCCCCCOc1ccc(-c2cnc(-c3ccc(C[C@H](NC(=O)c4ccc(C(C)(C)C)s4)C(=O)NC(C(=O)O)C(O)c4cc(C)no4)cc3)nc2)cc1 (some centres unmarked) [Compound 912]
18 | < 800 | CCCCCCCOc1ccc(-c2cnc(-c3ccc(C[C@H](NC(=O)c4ccc(C(C)(C)C)s4)C(=O)NC(C(=O)O)C(O)c4ncccn4)cc3)nc2)cc1 (some centres unmarked) [Compound 913]
19 | 2500 to 5000 | CCCCCCCOc1ccc(-c2cnc(-c3ccc(C[C@H](NC(=O)c4ccc(C(C)(C)C)s4)C(=O)NC(C(=O)O)C(O)C4CCCCC4)cc3)nc2)cc1 (some centres unmarked) [Compound 914]
20 | 800 to 2500 | CCCCCCCOc1ccc(-c2cnc(-c3ccc(C[C@H](NC(=O)c4ccc(C(C)(C)C)s4)C(=O)NC(C(=O)O)C(O)c4cccnn4)cc3)nc2)cc1 (some centres unmarked) [Compound 915]
